Biological target: T1, purified UGPase/PGMase protein (Cyclotella cryptica, UniProt A0ABD3PLY7)
T1 construct: both domains act
Format: biochemical
Conditions: determined via double reciprocal plots; glucose-6-phosphate versus glucose-1-phosphate as substrate
Protocol: P-4252) were added to each reaction and incubated for one hour at 30° C. The reaction mixtures were spotted onto separate 2.5 cm DE81 filter disks (Whatman Inc.; Fairfield, N.J.), which were then washed in five consecutive batches of water (200 mL each). The radioactivity of each filter was determined by liquid scintillation counting.

T1 sequence (A0ABD3PLY7 entry or part of it R291K): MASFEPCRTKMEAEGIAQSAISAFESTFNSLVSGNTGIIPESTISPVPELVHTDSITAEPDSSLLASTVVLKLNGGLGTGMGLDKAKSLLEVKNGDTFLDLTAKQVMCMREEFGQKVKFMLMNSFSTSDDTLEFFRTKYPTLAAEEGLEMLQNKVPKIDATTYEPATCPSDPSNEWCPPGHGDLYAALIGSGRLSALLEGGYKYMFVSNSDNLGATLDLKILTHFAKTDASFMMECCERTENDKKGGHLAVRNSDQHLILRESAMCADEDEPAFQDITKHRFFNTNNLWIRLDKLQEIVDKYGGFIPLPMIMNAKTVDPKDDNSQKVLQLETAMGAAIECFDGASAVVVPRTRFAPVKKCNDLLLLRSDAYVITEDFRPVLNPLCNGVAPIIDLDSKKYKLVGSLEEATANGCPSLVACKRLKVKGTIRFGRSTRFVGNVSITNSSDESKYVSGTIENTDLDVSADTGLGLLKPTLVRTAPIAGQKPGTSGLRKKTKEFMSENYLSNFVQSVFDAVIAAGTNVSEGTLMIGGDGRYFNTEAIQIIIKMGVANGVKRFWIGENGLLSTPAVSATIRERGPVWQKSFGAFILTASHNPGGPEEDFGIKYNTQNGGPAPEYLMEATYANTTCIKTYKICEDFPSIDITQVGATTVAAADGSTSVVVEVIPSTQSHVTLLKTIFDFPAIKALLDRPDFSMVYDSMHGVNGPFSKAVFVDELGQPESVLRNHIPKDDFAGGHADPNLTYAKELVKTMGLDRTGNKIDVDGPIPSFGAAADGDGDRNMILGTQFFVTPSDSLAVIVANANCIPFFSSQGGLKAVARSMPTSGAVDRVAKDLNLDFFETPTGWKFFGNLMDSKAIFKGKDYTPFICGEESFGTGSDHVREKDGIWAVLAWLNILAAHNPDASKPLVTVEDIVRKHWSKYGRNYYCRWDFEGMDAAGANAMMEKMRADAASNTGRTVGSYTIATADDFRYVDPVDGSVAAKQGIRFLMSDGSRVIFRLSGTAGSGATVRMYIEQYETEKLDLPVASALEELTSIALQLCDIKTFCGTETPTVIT

With `O=P(O)(O)OC[C@H]1OC(O)[C@H](O)[C@@H](O)[C@@H]1O` (stereo partly shown) [glucose-6-phosphate] the “maximum velocity of UDP-glucose formation, fold less than for glucose-1-phosphate” value was 13 fold.
